Laboratory results published in US20220289727A1, “ENZYME INHIBITORS” (KALVISTA PHARMACEUTICALS LIMITED, priority 2019, published 2022).

Biological target: T1, Human Factor XIIa (Homo sapiens, UniProt P00748)
T1 construct: Human Factor XIIa (Enzyme Research Laboratories) was incubated; purchased Enzyme Research Laboratories
T1 sequence (P00748 373-615 limits assumed): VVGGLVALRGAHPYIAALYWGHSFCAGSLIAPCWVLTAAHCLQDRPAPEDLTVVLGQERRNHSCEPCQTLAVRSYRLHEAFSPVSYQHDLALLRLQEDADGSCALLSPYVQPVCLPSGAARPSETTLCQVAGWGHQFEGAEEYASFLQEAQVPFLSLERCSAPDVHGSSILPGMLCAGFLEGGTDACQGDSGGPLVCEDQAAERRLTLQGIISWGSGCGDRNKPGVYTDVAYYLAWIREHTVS
T1 sequence (P00748 20-372 partner limits assumed): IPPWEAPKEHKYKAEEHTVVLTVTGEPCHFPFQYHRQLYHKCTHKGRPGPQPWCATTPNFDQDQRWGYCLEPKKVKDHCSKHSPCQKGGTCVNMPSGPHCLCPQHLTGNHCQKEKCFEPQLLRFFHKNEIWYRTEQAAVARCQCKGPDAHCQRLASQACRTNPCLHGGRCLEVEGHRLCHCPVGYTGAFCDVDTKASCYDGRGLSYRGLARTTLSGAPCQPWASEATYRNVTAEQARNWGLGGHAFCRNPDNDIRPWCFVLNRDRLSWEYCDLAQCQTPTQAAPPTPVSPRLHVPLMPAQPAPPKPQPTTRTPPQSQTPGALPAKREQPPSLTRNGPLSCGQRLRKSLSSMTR
Test: Determination of FXIIa inhibitory activity in vitro (fluorogenic substrate H-DPro-Phe-Arg-AFC)
Format: biochemical
Conditions: 25° C., residual enzyme activity (initial rate)

Row | Compound | IC50
1 | N#Cc1cccc(CNCc2sc(C(=O)NCc3ccc4c(N)nccc4c3)cc2Cl)c1 [Example 2.15] | 10 to 40 µM
2 | Nc1nccc2cc(CNC(=O)c3cc(Cl)c(CNC4CCOCC4)s3)ccc12 [Example 2.17] | 10 to 40 µM
3 | Nc1nccc2cc(CNC(=O)c3cc(Cl)c(CNCCN4CCOCC4)s3)ccc12 [Example 2.18] | 10 to 40 µM
4 | Nc1nccc2cc(CNC(=O)c3cc(Cl)c(CNCCOc4ccccc4)s3)ccc12 [Example 2.21] | 10 to 40 µM
5 | Nc1nccc2cc(CNC(=O)c3cc(Cl)c(CNCCCOc4ccccc4)s3)ccc12 [Example 2.22] | 10 to 40 µM
6 | Nc1nccc2cc(CNC(=O)c3cc(Cl)c(CNCCn4ccnc4)s3)ccc12 [Example 2.23] | 10 to 40 µM
7 | CC(=O)N1CCN(CCNCc2sc(C(=O)NCc3ccc4c(N)nccc4c3)cc2Cl)CC1 [Example 2.24] | 10 to 40 µM
8 | Nc1nccc2cc(CNC(=O)c3cc(Cl)c(CNCCN4CCS(=O)(=O)CC4)s3)ccc12 [Example 2.25] | 10 to 40 µM
9 | CC(C)CCNCc1sc(C(=O)NCc2ccc3c(N)nccc3c2)cc1Cl [Example 2.26] | 10 to 40 µM
10 | CC(=O)NCCNCc1sc(C(=O)NCc2ccc3c(N)nccc3c2)cc1Cl [Example 2.27] | 10 to 40 µM
11 | Nc1nccc2cc(CNC(=O)c3cc(Cl)c(CNCc4ccc5c(c4)OCO5)s3)ccc12 [Example 2.28] | 10 to 40 µM
12 | CN1CCCc2cc(CNCc3sc(C(=O)NCc4ccc5c(N)nccc5c4)cc3Cl)ccc21 [Example 2.29] | 10 to 40 µM
13 | Nc1nccc2cc(CNC(=O)c3cc(Cl)c(CNCc4ccccn4)s3)ccc12 [Example 2.30] | 10 to 40 µM

More lines, now with the values ahead:

Row | IC50 | Compound
14 | 10 to 40 µM | CN(C)Cc1sc(C(=O)NCc2ccc3c(N)nccc3c2)cc1Cl [Example 2.01]
15 | 10 to 40 µM | Nc1nccc2cc(CNC(=O)c3cc(Cl)c(CNCc4ccccc4)s3)ccc12 [Example 2.02]
16 | 10 to 40 µM | Nc1nccc2cc(CNC(=O)c3cc(Cl)c(CNc4ccccc4)s3)ccc12 [Example 2.03]
17 | 3 to 10 µM | Nc1nccc2cc(CNC(=O)c3cc(Cl)c(CNCCN4CCCCC4)s3)ccc12 [Example 2.04]
18 | 10 to 40 µM | COc1ccc(CNCc2sc(C(=O)NCc3ccc4c(N)nccc4c3)cc2Cl)cc1 [Example 2.05]
19 | 10 to 40 µM | COc1cccc(CNCc2sc(C(=O)NCc3ccc4c(N)nccc4c3)cc2Cl)c1 [Example 2.06]
20 | 10 to 40 µM | COc1ccccc1CNCc1sc(C(=O)NCc2ccc3c(N)nccc3c2)cc1Cl [Example 2.07]
21 | 10 to 40 µM | CN(C)c1ccccc1CNCc1sc(C(=O)NCc2ccc3c(N)nccc3c2)cc1Cl [Example 2.08]
22 | 10 to 40 µM | COCCNCc1sc(C(=O)NCc2ccc3c(N)nccc3c2)cc1Cl [Example 2.09]
23 | 10 to 40 µM | Nc1nccc2cc(CNC(=O)c3cc(Cl)c(CNCC4CCOCC4)s3)ccc12 [Example 2.10]
24 | 3 to 10 µM | CS(=O)(=O)c1ccc(CNCc2sc(C(=O)NCc3ccc4c(N)nccc4c3)cc2Cl)cc1 [Example 2.11, N-[(1-Aminoisoquinolin-6-yl)methyl]-4-chloro-5-({[(4-methanesulfonylphenyl)methyl]amino}methyl)thiophene-2-carboxamide]
25 | 3 to 10 µM | CS(=O)(=O)c1cccc(CNCc2sc(C(=O)NCc3ccc4c(N)nccc4c3)cc2Cl)c1 [Example 2.12]
26 | 10 to 40 µM | CS(=O)(=O)c1ccccc1CNCc1sc(C(=O)NCc2ccc3c(N)nccc3c2)cc1Cl [Example 2.13]
27 | 3 to 10 µM | CN(C)CCNCc1sc(C(=O)NCc2ccc3c(N)nccc3c2)cc1Cl [Example 2.16]
28 | 3 to 10 µM | CN1CCN(CCNCc2sc(C(=O)NCc3ccc4c(N)nccc4c3)cc2Cl)CC1 [Example 2.19]
29 | 3 to 10 µM | CN1CCC(CNCc2sc(C(=O)NCc3ccc4c(N)nccc4c3)cc2Cl)CC1 [Example 2.20]
30 | 3 to 10 µM | Nc1nccc2cc(CNC(=O)c3cc(Cl)c(CNCc4ccncc4)s3)ccc12 [Example 2.31]
31 | 3 to 10 µM | Nc1nccc2cc(CNC(=O)c3cc(Cl)c(CNCc4cccnc4)s3)ccc12 [Example 2.32]
32 | 3 to 10 µM | CN(C)CCCNCc1sc(C(=O)NCc2ccc3c(N)nccc3c2)cc1Cl [Example 2.33]
